In patent publication US20230146395A1, “Substituted Pyrimidines and Uses Thereof” (Verge Analytics, Inc., priority 2020, published 2023):
Structures can show the parent of a compound that is named as a salt.

Tests used:
PI3Kα = target: T1, PI3Kα (Homo sapiens, UniProt P42336); experiment: Inhibition of PI3K isoforms: PI3Kα (microfluidic electrophoresis kinase assay, PIP2/PS substrate); type: biochemical; conditions: p110α/p85α, ATP 90 μM; read-out: PI3Ka IC50
T1 construct: Full-length N-terminal; FLAG (N); host or cells: SF9 cells (baculovirus)
T1 sequence (P42336 whole entry, canonical isoform): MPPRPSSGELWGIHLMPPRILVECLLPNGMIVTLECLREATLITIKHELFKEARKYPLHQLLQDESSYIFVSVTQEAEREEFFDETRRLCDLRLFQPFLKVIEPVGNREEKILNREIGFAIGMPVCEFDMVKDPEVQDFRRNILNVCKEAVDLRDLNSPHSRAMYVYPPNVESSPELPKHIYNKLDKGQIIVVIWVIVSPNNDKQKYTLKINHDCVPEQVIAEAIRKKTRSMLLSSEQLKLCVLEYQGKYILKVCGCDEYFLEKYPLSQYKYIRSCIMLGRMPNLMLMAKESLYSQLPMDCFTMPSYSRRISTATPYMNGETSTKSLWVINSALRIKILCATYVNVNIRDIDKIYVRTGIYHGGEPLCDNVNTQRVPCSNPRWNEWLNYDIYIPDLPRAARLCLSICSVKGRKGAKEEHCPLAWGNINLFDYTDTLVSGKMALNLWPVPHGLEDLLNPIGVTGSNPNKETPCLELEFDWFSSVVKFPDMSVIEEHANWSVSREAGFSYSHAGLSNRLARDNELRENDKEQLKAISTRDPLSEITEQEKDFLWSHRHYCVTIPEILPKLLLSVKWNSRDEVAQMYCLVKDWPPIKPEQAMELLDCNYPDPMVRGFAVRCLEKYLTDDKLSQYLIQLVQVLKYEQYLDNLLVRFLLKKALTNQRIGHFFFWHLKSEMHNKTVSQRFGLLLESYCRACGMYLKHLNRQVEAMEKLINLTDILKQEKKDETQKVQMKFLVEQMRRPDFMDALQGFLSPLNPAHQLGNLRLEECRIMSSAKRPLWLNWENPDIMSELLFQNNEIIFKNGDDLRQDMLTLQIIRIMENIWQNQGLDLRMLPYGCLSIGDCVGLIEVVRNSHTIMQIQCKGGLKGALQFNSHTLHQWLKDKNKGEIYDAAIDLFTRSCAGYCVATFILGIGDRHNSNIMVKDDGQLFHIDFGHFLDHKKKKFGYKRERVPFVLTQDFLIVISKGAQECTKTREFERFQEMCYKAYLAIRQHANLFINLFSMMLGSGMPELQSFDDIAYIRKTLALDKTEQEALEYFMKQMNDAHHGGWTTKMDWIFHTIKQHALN
T1 sequence (P27986 whole entry partner, canonical isoform): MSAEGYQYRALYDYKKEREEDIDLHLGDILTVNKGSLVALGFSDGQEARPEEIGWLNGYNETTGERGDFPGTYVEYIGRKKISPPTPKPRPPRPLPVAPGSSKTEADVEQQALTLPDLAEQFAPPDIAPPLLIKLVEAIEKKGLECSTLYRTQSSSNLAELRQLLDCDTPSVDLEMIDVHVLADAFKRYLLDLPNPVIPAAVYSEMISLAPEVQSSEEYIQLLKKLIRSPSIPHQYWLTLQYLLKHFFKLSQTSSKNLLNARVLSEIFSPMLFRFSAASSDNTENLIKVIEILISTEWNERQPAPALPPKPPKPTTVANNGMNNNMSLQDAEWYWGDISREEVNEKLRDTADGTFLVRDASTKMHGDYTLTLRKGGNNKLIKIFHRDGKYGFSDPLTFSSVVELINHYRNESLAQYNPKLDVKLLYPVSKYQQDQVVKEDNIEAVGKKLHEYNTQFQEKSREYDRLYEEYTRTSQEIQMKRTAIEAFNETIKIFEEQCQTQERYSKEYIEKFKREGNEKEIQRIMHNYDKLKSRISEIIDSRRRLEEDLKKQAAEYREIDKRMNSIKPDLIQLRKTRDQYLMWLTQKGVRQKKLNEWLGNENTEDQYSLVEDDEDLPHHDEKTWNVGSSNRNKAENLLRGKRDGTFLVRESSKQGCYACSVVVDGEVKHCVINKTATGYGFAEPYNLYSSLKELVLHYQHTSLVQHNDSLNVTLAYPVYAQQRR
Experimental: The kinase substrate was prepared by mixing and sonicating fluorescently-labeled phosphatidylinositol 4,5-phosphate (PIP2) with phospho-L-serine (PS) at 1:20 ratio in 50 mM HEPES buffer pH7.5.
The kinase reactions were assembled in 384-well plates (Greiner) in a total volume of […] as follows. The kinase proteins were pre-diluted in an assay buffer comprising 50 mM HEPES, pH 7.5, 0.012% CHAPS, 1 mM DTT, 10 mM Na3VaO4, 10 mM 3-GP, 3 mM MgCl2, and 40 mM NaCl2, and dispensed into a 384-well plate (10 μL per well). Test compounds were serially pre-diluted in DMSO and added to the protein samples by acoustic dispensing (Labcyte Echo). The concentration of DMSO was equalized to 1% in all samples. All test compounds were tested at 12 concentrations. The control samples (0%-inhibition in the absence of inhibitor, DMSO only) and 100%-inhibition (in the absence of enzyme) were assembled in replicates of four and were used to calculate %-inhibition in the presence of test compounds. The reactions were initiated by addition of 10 μL of the PIP2/PS substrate supplemented with ATP. The final concentration of enzymes was 0.5 nM (PI3Kα), 1 nM (PI3Kβ), 10 nM (PI3Kγ), and 0.25 nM (PI3Kδ). The final concentration of ATP was 90 μM (PI3Kα), 60 μM (PI3Kβ), 100 μM (PI3Kγ), and 90 μM (PI3Kδ). The final concentration of PIP2/PS substrate was 1 μM (PIP2). The kinase reactions were allowed to proceed for 3 h at room temperature. Following incubation, the reactions were quenched by addition of 50 μL of termination buffer (100 mM HEPES, pH 7.5, 0.01% Triton X-100, 20 mM EDTA). Terminated plates were analyzed on a microfluidic electrophoresis instrument (Caliper LabChip® 3000, Caliper Life Sciences/Perkin Elmer). The change in the relative fluorescence intensity of the PI(4,5)P substrate and PI(3,4,5)P product peaks was measured. The activity in each test sample was determined as the product to sum ratio (PSR): P/(S+P), where P is the peak height of the product, and S is the peak height of the substrate. Percent inhibition (Pinh) was determined using the following equation:
Pinh=(PSR0% inh−PSRcompound)/(PSR0% inh−PSR100% inh)*100
in which PSRcompound is the product/sum ratio in the presence of compound, PSR0% inh is the product/sum ratio in the absence of compound, and the PSR100% inh is the product/sum ratio in the absence of the enzyme.

PI3Kδ = target: T2, PI3Kδ (Homo sapiens, UniProt O00329); experiment: Inhibition of PI3K isoforms: PI3Kδ (microfluidic electrophoresis kinase assay, PIP2/PS substrate); type: biochemical; conditions: p110δ/p85α, ATP 90 μM; read-out: PI3Kd IC50
T2 construct: Full-length N-terminal; GST (N); host or cells: SF9 cells (baculovirus)
T2 sequence (O00329 whole entry, canonical isoform): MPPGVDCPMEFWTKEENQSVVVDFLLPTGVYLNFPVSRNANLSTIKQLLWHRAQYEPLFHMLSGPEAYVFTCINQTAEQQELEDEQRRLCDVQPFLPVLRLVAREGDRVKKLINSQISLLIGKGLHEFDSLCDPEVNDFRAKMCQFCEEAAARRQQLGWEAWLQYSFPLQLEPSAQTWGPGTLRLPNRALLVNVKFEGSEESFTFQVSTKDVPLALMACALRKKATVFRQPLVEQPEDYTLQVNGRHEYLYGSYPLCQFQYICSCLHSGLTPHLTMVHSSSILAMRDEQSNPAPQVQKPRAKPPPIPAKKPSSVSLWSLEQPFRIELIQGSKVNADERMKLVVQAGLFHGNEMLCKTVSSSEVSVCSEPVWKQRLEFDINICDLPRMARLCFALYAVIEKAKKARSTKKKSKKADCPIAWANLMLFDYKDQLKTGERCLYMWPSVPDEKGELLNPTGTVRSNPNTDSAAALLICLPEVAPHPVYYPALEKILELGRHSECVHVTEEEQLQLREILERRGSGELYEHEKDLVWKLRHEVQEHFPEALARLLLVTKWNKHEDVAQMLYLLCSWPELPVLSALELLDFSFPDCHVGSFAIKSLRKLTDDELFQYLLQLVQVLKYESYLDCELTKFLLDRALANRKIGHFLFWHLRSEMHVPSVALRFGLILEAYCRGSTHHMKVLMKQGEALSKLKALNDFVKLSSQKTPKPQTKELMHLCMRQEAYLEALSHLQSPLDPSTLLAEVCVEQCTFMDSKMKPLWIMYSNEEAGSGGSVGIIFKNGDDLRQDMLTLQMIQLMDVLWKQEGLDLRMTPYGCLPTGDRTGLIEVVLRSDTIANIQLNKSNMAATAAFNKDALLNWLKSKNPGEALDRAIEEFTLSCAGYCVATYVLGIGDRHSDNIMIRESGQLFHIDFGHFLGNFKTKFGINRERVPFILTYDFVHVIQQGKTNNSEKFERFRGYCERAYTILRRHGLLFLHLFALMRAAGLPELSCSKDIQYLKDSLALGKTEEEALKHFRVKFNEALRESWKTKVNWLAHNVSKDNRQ
T2 sequence (P27986 whole entry partner, canonical isoform): as the sequence (P27986 whole entry partner, canonical isoform) above
Experimental: The kinase substrate was prepared by mixing and sonicating fluorescently-labeled phosphatidylinositol 4,5-phosphate (PIP2) with phospho-L-[…]:20 ratio in 50 mM HEPES buffer pH7.5. The kinase reactions were assembled in 384-well plates (Greiner) in a total volume of […] as follows. The kinase proteins were pre-diluted in an assay buffer comprising 50 mM HEPES, pH 7.5, 0.012% CHAPS, 1 mM DTT, 10 mM Na3VaO4, 10 mM 3-GP, 3 mM MgCl2, and 40 mM NaCl2, and dispensed into a 384-well plate (10 μL per well). Test compounds were serially pre-diluted in DMSO and added to the protein samples by acoustic dispensing (Labcyte Echo). The concentration of DMSO was equalized to 1% in all samples. All test compounds were tested at 12 concentrations. The control samples (0%-inhibition in the absence of inhibitor, DMSO only) and 100%-inhibition (in the absence of enzyme) were assembled in replicates of four and were used to calculate %-inhibition in the presence of test compounds. The reactions were initiated by addition of 10 μL of the PIP2/PS substrate supplemented with ATP. The final concentration of enzymes was 0.5 nM (PI3Kα), 1 nM (PI3Kβ), 10 nM (PI3Kγ), and 0.25 nM (PI3Kδ). The final concentration of ATP was 90 μM (PI3Kα), 60 μM (PI3Kβ), 100 μM (PI3Kγ), and 90 μM (PI3Kδ). The final concentration of PIP2/PS substrate was 1 μM (PIP2). The kinase reactions were allowed to proceed for 3 h at room temperature. Following incubation, the reactions were quenched by addition of 50 μL of termination buffer (100 mM HEPES, pH 7.5, 0.01% Triton X-100, 20 mM EDTA). Terminated plates were analyzed on a microfluidic electrophoresis instrument (Caliper LabChip® 3000, Caliper Life Sciences/Perkin Elmer). The change in the relative fluorescence intensity of the PI(4,5)P substrate and PI(3,4,5)P product peaks was measured. The activity in each test sample was determined as the product to sum ratio (PSR): P/(S+P), where P is the peak height of the product, and S is the peak height of the substrate. Percent inhibition (Pinh) was determined using the following equation: Pinh=(PSR0% inh-PSRcompound)/(PSR0% inh-PSR100% inh)*100 in which PSRcompound is the product/sum ratio in the presence of compound, PSR0% inh is the product/sum ratio in the absence of compound, and the PSR100% inh is the product/sum ratio in the absence of the enzyme. […] (Pinh versus compound concentration) were fitted by a four-parameter sigmoid dose-response model using XLfit software (IDBS).

IC50 (PI3Kα): 6.78 µM
IC50 (PI3Kδ): 2.71 µM
SMILES: c1ccc(-c2cc(Nc3nc(N4CCOCC4)c4oc(-c5ccncc5)cc4n3)[nH]n2)cc1 [Compound 1, 4-morpholino-N-(3-phenyl-1H-pyrazol-5-yl)-6-(pyridin-4-yl)furo[3,2-d]pyrimidin-2-amine hydrochloride]
